{"source": "patent US20260199287A1", "about": "“LIPO-HYDROXAMIC ACID DERIVATIVE AND PHARMACEUTICAL USE THEREOF” (MediciBIO Co., Ltd, priority 2022, published 2026)", "key": {"[1]": {"format": "in vitro ADME"}, "[2]": {"system": "human corneal endothelial cells", "assay": "In vitro antioxidant activity, ROS-Glo H2O2 assay in corneal dystrophy-like environment", "format": "cell-based", "settings": "compared to control group (corneal dystrophy-mimicking: UV 5 J/cm^2 + TGF-β1 10 ng/ml); sample 4 h before induction", "procedure": "PriNeu I medium, which is a serum-free medium, was supplemented with 10% fetal bovine serum, human epidermal growth factor (EGF), human vascular endothelial growth factor (VEGF), human insulin, human transferrin, sodium selenite, hydrocortisone, heparin, R estradiol, L-glutamine, penicillin/streptomycin, and G418 (geneticin). Human corneal endothelial cells (purchased from Creative Biolabs (NY, USA)) were seeded onto culture dishes coated with FNC Coating Mix (Athena Environmental Science, MD, USA) and incubated at 37° C. in a humidified 5% CO2 atmosphere.\nTo establish an intracellular environment similar to that of cells affected by corneal dystrophy (hereinafter referred to as “corneal dystrophy-like environment”), cellular signaling pathways involving reactive oxygen species (ROS) and transforming growth factor-beta (TGF-β), both known to be associated with corneal dystrophy, were activated. Human corneal endothelial cells were first cultured in standard medium for 24 hours, after which the medium was replaced with serum-free PriNeu I medium. The cells were then irradiated at an intensity of 5 J/cm^2 using a UV irradiation (BLX-Link, Vilber, France). Subsequently, the cells were treated with recombinant human TGF-β1 protein at a concentration of 10 ng/ml (Bon Opus, NJ, USA).\nTo determine the effect of the above-prepared lipo-hydroxamic acid derivatives on oxidative stress activity in corneal endothelial cells, human corneal endothelial cells were cultured at 1.5×10^4 cells per well in a 96-well plate coated with FNC Coating Mix for 18 to 24 hours. Subsequently, the cells were treated with the test samples (Samples 1, 3, and 5). […] The oxidative stress activity was determined by measuring the level of hydrogen peroxide (hereinafter referred to as “H2O2”) in the cell culture medium using the ROS-Glo™ H2O2 Assay (Promega, WI, USA) according to the manufacturer's instructions. The luminescence intensity was measured using the GloMax® Discover microplate reader (Promega) at an excitation wavelength of 485 nm and an emission wavelength of 520-530 nm."}, "[3]": {"system": "human corneal endothelial cells", "assay": "Anti-apoptotic effect, CellTiter-Glo 2.0 cell viability assay in corneal dystrophy-like environment", "format": "cell-based", "settings": "compared to control group (corneal dystrophy-mimicking); 24 hours treatment", "procedure": "PriNeu I medium, which is a serum-free medium, was supplemented with 10% fetal bovine serum, human epidermal growth factor (EGF), human vascular endothelial growth factor (VEGF), human insulin, human transferrin, sodium selenite, hydrocortisone, heparin, R estradiol, L-glutamine, penicillin/streptomycin, and G418 (geneticin). Human corneal endothelial cells (purchased from Creative Biolabs (NY, USA)) were seeded onto culture dishes coated with FNC Coating Mix (Athena Environmental Science, MD, USA) and incubated at 37° C. in a humidified 5% CO2 atmosphere. […]\nIn order to identify the effect of the lipo-hydroxamic acid derivative prepared above on apoptosis caused by corneal dystrophy in corneal endothelial cells, human corneal endothelial cells were cultured in the same manner as in Example 3-1. […] Afterwards, the samples (Samples 1, 4, and 5) were pretreated for 24 hours, and cell viability was measured via the CellTiter-Glo 2.0 cell viability assay (Promega). The number of viable cells was determined based on intracellular ATP levels, and the luminescence intensity was measured using a GloMax Discover microplate reader (Promega)."}, "NQO-1": {"system": "NQO-1", "assay": "Real-time PCR, NQO-1 mRNA", "format": "cell-based, human", "settings": "corneal dystrophy-like environment", "procedure": "(§1) To identify the antioxidant mechanism of the lipo-hydroxamic acid derivative prepared above, real-time PCR was performed to detect the mRNA expression levels of the antioxidant enzymes downstream of Nrf2. First, human corneal endothelial cells were cultured at 3×10^5 cells per well in a 6-well plate coated with FNC Coating Mix for 18 to 24 hours, and the samples were treated. Four hours after the sample treatment, the corneal dystrophy-like environment was induced using the same method as described in Example 3-2. Twenty-four hours after inducing the corneal dystrophy-like environment, RNA was isolated from the cells using an RNA extraction kit (Bioneer, Daejeon), and cDNA was synthesized from […] of RNA using RT PreMix (Bioneer). Subsequently, real-time PCR was performed using GoTaq mater mix (Promega) containing SYBR green solution at 95° C. for 2 minutes, followed by 35 cycles at 95° C. for 15 seconds and at 60° C. for 1 minute."}, "HO-1": {"system": "HO-1", "assay": "Real-time PCR, HO-1 mRNA", "format": "cell-based, human", "settings": "corneal dystrophy-like environment", "procedure": "as §1"}, "peroxiredoxin 1 (Prdx1)": {"system": "peroxiredoxin 1 (Prdx1)", "assay": "Real-time PCR, Prdx1 mRNA", "format": "cell-based, human", "settings": "corneal dystrophy-like environment", "procedure": "as §1"}, "Smad3": {"system": "Smad3", "assay": "SMAD3 (pS423/pS425) ELISA", "format": "cell-based, human", "settings": "compared to the control group (corneal dystrophy-like environment)", "procedure": "To identify the effect of the lipo-hydroxamic acid derivative prepared above on the expression of factors associated with fibrosis- and cellular degeneration-related factors in corneal endothelial cells, ELISA was performed to observe the activity of Smad3 protein. Analysis was carried out using SMAD3 (pS423/pS425) Human InstantOne ELISA kit (Thermo Fisher Scientific) according to the manufacturer's instructions. Human corneal endothelial cells were seeded in a 96-well plate at 2×10^4 cells per well, cultured for 24 hours, and then treated with the sample. Twenty-four hours after the sample treatment, the corneal dystrophy-like environment was induced in the same manner as in Example 3-2. Twenty-four hours after the induction, the cells were washed with PBS, lysed by adding 100 μL of lysis buffer mixture prepared by mixing the cell lysis reagent and buffer supplied in the kit. Subsequently, 50 μL of the cell lysate from each sample was added to the ELISA microplate wells. A 1:1 mixture of capture antibody and detection antibody, as provided in the kit, was prepared to form an antibody cocktail, and 50 μL of this mixture was added to each well. The plate was sealed and incubated at room temperature on a shaker at 300 rpm for 1 hour. […] The plate was then read using a microplate reader (Promega) at an absorbance of 450 nm."}, "N-cadherin": {"system": "N-cadherin", "assay": "Real-time PCR, N-cadherin mRNA", "format": "cell-based, human", "settings": "corneal dystrophy-like environment", "procedure": "as §1\n(§2) To identify the effect of the lipo-hydroxamic acid derivative prepared above on the expression of fibrosis- and cellular degeneration-related factors in corneal endothelial cells, real-time PCR was performed to detect mRNA expression levels of the fibrosis marker N-cadherin, and the cellular degeneration markers collagen I and fibronectin. The real-time PCR was performed in the same manner as in Example 5-2 above."}, "fibronectin": {"system": "fibronectin", "assay": "Real-time PCR, fibronectin mRNA", "format": "cell-based, human", "settings": "corneal dystrophy-like environment", "procedure": "as §1, §2"}}, "note": "Where two headings read alike, the source gives them in different places.", "data": [{"smiles": "O=C(CCCCC1CCSS1)NOCCO", "note": "(stereo not drawn) [Sample 1, 5-[1,2]dithiolan-3-yl-pentanoic acid (2-hydroxy-ethoxy)-amide]", "values": [{"measurement": "Peak area (%)", "setting": "[1]; 0.5 h", "result": 97.37, "unit": "%"}, {"measurement": "Peak area (%)", "setting": "[1]; 2 h", "result": 92.65, "unit": "%"}, {"measurement": "Peak area (%)", "setting": "[1]; 18 h", "result": 17.42, "unit": "%"}, {"measurement": "Peak area (%)", "setting": "[1]; 24 h", "result": 6.00, "unit": "%"}, {"measurement": "oxidative stress (H2O2 level in cell culture medium)", "setting": "[2]", "result": "significantly decreased"}, {"measurement": "concentration from which a significant increase in cell viability was observed", "setting": "[3]", "result": "≥ 30", "unit": "µM"}, {"measurement": "mRNA expression of NQO-1", "setting": "NQO-1", "result": "significantly increased"}, {"measurement": "mRNA expression of HO-1", "setting": "HO-1", "result": "significantly increased"}, {"measurement": "mRNA expression of peroxiredoxin 1 (Prdx1)", "setting": "peroxiredoxin 1 (Prdx1)", "result": "significantly increased"}, {"measurement": "activity of the Smad3 protein", "setting": "Smad3", "result": "significantly decreased"}, {"measurement": "mRNA expression of N-cadherin", "setting": "N-cadherin", "result": "significantly decreased in a concentration-dependent manner"}, {"measurement": "mRNA expression of fibronectin", "setting": "fibronectin", "result": "significantly decreased in a concentration-dependent manner"}]}]}
